According to patent publication US7037909B2, “Tetracyclic compounds as c-Met inhibitors” (Sugen, Inc., priority 2003, dated 2006):

What follows are compounds tested against T1, c-MET (Homo sapiens, UniProt P08581) (assay: MET Transphosphorylation Assay (ELISA, poly(Glu,Tyr) 4:1 substrate)). Settings: not given.
T1 construct: Purified GST fusion protein containing the Met kinase domain, Sugen, Inc
Assay type: biochemical
Description: MET Transphosphorylation Assay
This assay is used to measure phosphotyrosine levels on a poly(glutamic acid:tyrosine (4:1)) substrate as a means for identifying agonists/antagonists of met transphosphorylation of the substrate.
• 1. […] PBS, Gibco Catalog #450-1300EB • 4. 50 mM HEPES • 5. […] Purified GST fusion protein containing the Met kinase domain, Sugen, Inc. • 7. TBST Buffer. • 8. 10% aqueous (MilliQue H2O) DMSO. • 9. […] 2× Kinase Dilution Buffer: for 100 ml, mix 10 mL 1M HEPES at pH 7.5 with 0.4 mL 5% BSA/PBS, 0.2 mL 0.1M sodium orthovanadate and 1 mL 5M sodium chloride in 88.4 mL dH2O. • 11. 4× ATP Reaction Mixture: for 10 mL, mix 0.4 mL 1M manganese chloride and 0.02 mL 0.1M ATP in 9.56 mL dH2O. • 12. 4× Negative Controls Mixture: for 10 mL, mix 0.4 mL 1M manganese chloride in 9.6 mL dH2O. • 13. […] 500 mM EDTA. • 15. Antibody Dilution Buffer: for 100 mL, mix 10 mL 5% BSA/PBS, 0.5 mL 5% Carnation Instant Milk® in PBS and 0.1 mL 0.1M sodium orthovanadate in 88.4 mL TBST. • 16. Rabbit polyclonal antophosphotyrosine antibody, Sugen, Inc. • 17. Goat anti-rabbit horseradish peroxidase conjugated antibody, Biosource, Inc. • 18. ABTS Solution: for 1 L, mix 19.21 g citric acid, 35.49 g Na2HPO4 and 500 mg ABTS with sufficient dH2O to make 1 L. • 19. ABTS/H2O2: mix 15 mL ABST solution with 2 μL H2O2 five minutes before use. • 20. 0.2M HCl Procedure: • 1. Coat ELISA plates with 2 μg Poly(Glu-Tyr) in 100 μL PBS, store overnight at 4° C. • 2. Block plate with 150 μL of 5% BSA/PBS for 60 min. • 3. Wash plate twice with PBS, once with 50 mM Hepes buffer pH 7.4. • 4. Add 50 μl of the diluted kinase to all wells. (Purified kinase is diluted with Kinase Dilution Buffer. Final concentration should be 10 ng/well.) • 5. Add 25 μL of the test compound (in 4% DMSO) or DMSO alone (4% in dH2O) for controls to plate. • 6. Incubate the kinase/compound mixture for 15 minutes. • 7. Add 25 μL of 40 mM MnCl2 to the negative control wells. • 8. Add 25 μL ATP/MnCl2 mixture to the all other wells (except the negative controls). Incubate for 5 min. • 9. Add 25 μL 500 mM EDTA to stop reaction. • 10. Wash plate 3× with TBST. • 11. Add 100 μL rabbit polyclonal anti-Ptyr diluted 1:10,000 in Antibody Dilution Buffer to each well. Incubate, with shaking, at room temperature for one hour. • 12. Wash plate 3× with TBST. • 13. Dilute Biosource HRP conjugated anti-rabbit antibody 1: 6,000 in Antibody Dilution buffer. Add 100 μL per well and incubate at room temperature, with shaking, for one hour. • 14. Wash plate 1× with PBS. • 15. Add 100 μl of ABTS/H2O2 solution to each well. • 16. If necessary, stop the development reaction with the addition of 100 μl of 0.2M HCl per well. • 17. […]

T1 sequence (P08581 1078-1345 limits assumed): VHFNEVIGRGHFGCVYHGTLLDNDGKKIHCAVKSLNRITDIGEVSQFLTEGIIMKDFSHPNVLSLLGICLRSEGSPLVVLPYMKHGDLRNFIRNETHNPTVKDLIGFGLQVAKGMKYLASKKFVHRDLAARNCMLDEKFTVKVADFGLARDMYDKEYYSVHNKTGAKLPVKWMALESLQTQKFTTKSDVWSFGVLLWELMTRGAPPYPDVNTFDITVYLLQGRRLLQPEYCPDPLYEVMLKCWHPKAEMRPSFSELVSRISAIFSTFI

Row | Structure (SMILES) | IC50 [nM]
1 | COc1ccc2[nH]c3nc4nnc(Cc5ccc(O)cc5)n4nc3c2c1Cl [Example 19, 4-(5-Chloro-6-methoxy-9H-1,2,3a,4,9,10-hexaaza-cyclopenta[b]fluoren-3-ylmethyl)-phenol] | 12

Same assay, conditions: purified GST fusion protein containing the Met kinase domain; poly(glu, tyr) 4:1 substrate; read-out: c-MET IC50

Row | Structure (SMILES) | IC50 [nM]
2 | Oc1ccc(Cc2nnc3nc4[nH]c5ccccc5c4nn23)cc1 [Example 17, 4-(9H-1,2,3a,4,9,10-Hexaaza-cyclopenta[b]fluoren-3-ylmethyl)-phenol] | 18
3 | Oc1ccc(Cc2nnc3nc4[nH]c5c(Cl)ccc(Cl)c5c4nn23)cc1 [Example 18, 4-(5,8-Dichloro-9H-1,2,3a,4,9,10-hexaaza-cyclopenta[b]fluoren-3-ylmethyl)-phenol] | 36
4 | COc1cc(Cl)c2[nH]c3nc4nnc(Cc5ccc(O)cc5)n4nc3c2c1Cl [Example 20, 4-(5,8-Dichloro-6-methoxy-9H-1,2,3a,4,9,10-hexaaza-cyclopenta[b]fluoren-3-ylmethyl)-phenol] | 46
5 | Oc1ccc(Cc2nnc3nc4[nH]c5cccc(Cl)c5c4nn23)cc1 [Example 21, 4-(5-Chloro-9H-1,2,3a,4,9,10-hexaaza-cyclopenta[b]fluoren-3-ylmethyl)-phenol] | 10
6 | Oc1ccc(Cc2nnc3nc4[nH]c5c(Cl)cccc5c4nn23)cc1 [Example 22, 4-(8-Chloro-9H-1,2,3a,4,9,10-hexaaza-cyclopenta[b]fluoren-3-ylmethyl)-phenol] | 35
7 | Oc1ccc(Cc2nnc3nc4[nH]c5c(Cl)cc(Cl)c(Cl)c5c4nn23)cc1 [Example 23, 4-(5,6,8-Trichloro-9H-1,2,3a,4,9,10-hexaaza-cyclopenta[b]fluoren-3-ylmethyl)-phenol] | 460
8 | Cc1ccc(C)c2c1[nH]c1nc3nnc(Cc4ccc(O)cc4)n3nc12 [Example 24, 4-(5,8-Dimethyl-9H-1,2,3a,4,9,10-hexaaza-cyclopenta[b]fluoren-3-ylmethyl)-phenol, dihydrate] | 22
9 | Cc1cc(C)c2[nH]c3nc4nnc(Cc5ccc(O)cc5)n4nc3c2c1 [Example 25, 4-(6,8-Dimethyl-9H-1,2,3a,4,9,10-hexaaza-cyclopenta[b]fluoren-3-ylmethyl)-phenol] | 55
10 | Cc1cc(Cl)cc2c1[nH]c1nc3nnc(Cc4ccc(O)cc4)n3nc12 [Example 26, 4-(6-Chloro-8-methyl-9H-1,2,3a,4,9,10-hexaaza-cyclopenta[b]fluoren-3-ylmethyl)-phenol] | 25
11 | N[C@H]1CCN(C(=O)c2ccc3[nH]c4nc5nnc(Cc6ccc(F)cc6)n5nc4c3c2Cl)C1 [Example 34, [(3S)-3-Amino-pyrrolidin-1-yl]-[5-chloro-3-(4-fluoro-benzyl)-9H-1,2,3a,4,9,10-hexaaza-cyclopenta[b]fluoren-6-yl]-methanone] | 42
12 | Cc1cc(OCCN2CCOCC2)c(C)c2c1[nH]c1nc3nnc(Cc4ccc(O)cc4)n3nc12 [Example 35, 4-[5,8-Dimethyl-6-(2-morpholin-4-yl-ethoxy)-9H-1,2,3a,4,9,10-hexaaza-cyclopenta[b]fluoren-3-ylmethyl]-phenol] | 28
13 | Cc1cc(OCCN2CCOCC2)c(C)c2c1[nH]c1nc3nnc(Cc4ccc(F)cc4)n3nc12 [Example 36, 3-(4-Fluoro-benzyl)-5,8-dimethyl-6-(2-morpholin-4-yl-ethoxy)-9H-1,2,3a,4,9,10-hexaaza-cyclopenta[b]fluorine] | 560
